Laboratory results reported in US6359006B2, “Amphiphilic fluorine derivatives with telomeric structures; preparation procedure and biomedical applications” (Alliance Pharmaceutical Corp., priority 1990, dated 2002).

Assay: Solubility
Format: physicochemical

In the case of `O=C(CCSCCC(F)(F)C(F)(F)C(F)(F)C(F)(F)C(F)(F)C(F)(F)F)NC(CO)(CO)CO` [monoadduct 14, N-[(trihydrozymethyl)methyl]4-thia-6-(n-perfluorohezyl) hexanamide], the “solubility in organic solvents (in words)” value (organic solvents such as AcOEt, CH3CN, CH3OH, CHCl3) is reported as “soluble in organic solvents” and the “solubility in water (in words)” value (water) is reported as “insoluble in water”.
